Results: ChEMBL document CHEMBL1201862, “PubChem BioAssay data set” (2004)
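Interpolation was linear, between the two tested concentrations surrounding the appropriate level; five concentrations were tested over 48 hours in 96-well plates. GI50: concentration for 50% inhibition of growth.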 Active and inactive are the calls of the source. Rule as the data show it: active = GI50 up to about 1.1 µM and inactive = higher.

How the values were obtained:
Experiment in all cases: NCI anticancer screen, dose series, 48 h
SF-295 = test system: SF-295
HCC 2998 = test system: HCC 2998
SK-MEL-28 = test system: SK-MEL-28
TK-10 = test system: TK-10
ACHN = test system: ACHN
IGROV-1 = test system: IGROV-1
OVCAR-3 = test system: OVCAR-3
SW-620 = test system: SW-620
KM12 = test system: KM12
COLO 205 = test system: COLO 205
T47D = test system: T47D
DU-145 = test system: DU-145
MDA-N = test system: MDA-N
NCI/ADR-RES = test system: NCI/ADR-RES
EKVX = test system: EKVX
786-0 = test system: 786-0
UO-31 = test system: UO-31
A498 = test system: A498
OVCAR-4 = test system: OVCAR-4

Measured: GI50

CNC(=O)C(C)NC(=O)C(Cc1ccccc1)NC(=O)c1ccccc1 (stereo not drawn)
inactive: SF-295 > 100 µM | HCC 2998 > 100 µM | SK-MEL-28 > 100 µM | TK-10 > 100 µM | ACHN > 100 µM | IGROV-1 > 100 µM | OVCAR-3 > 100 µM | SW-620 > 100 µM | KM12 > 100 µM | COLO 205 > 100 µM | T47D > 100 µM | DU-145 > 100 µM | MDA-N > 100 µM | NCI/ADR-RES > 100 µM | EKVX > 100 µM | 786-0 > 100 µM | UO-31 > 100 µM | A498 > 100 µM | OVCAR-4 > 100 µM

CC(=O)N(C(C)=O)n1c(Cc2ccc(Cl)cc2)nn(C(C)=O)c1=O
inactive: SF-295 > 100 µM | HCC 2998 > 100 µM | SK-MEL-28 > 100 µM | TK-10 > 100 µM | ACHN > 100 µM | IGROV-1 > 100 µM | OVCAR-3 > 100 µM | SW-620 > 100 µM | KM12 > 100 µM | COLO 205 > 100 µM | T47D > 100 µM | DU-145 > 100 µM | MDA-N > 100 µM | NCI/ADR-RES > 100 µM | EKVX > 100 µM | 786-0 > 100 µM | UO-31 > 100 µM | A498 > 100 µM | OVCAR-4 > 100 µM

CC(C)(Cl)C(Br)CC/C(=C/CBr)CBr.CC(C)(Cl)C(Br)CC/C(=C\CBr)CBr (stereo not drawn)
inactive: SF-295 3.71 µM | HCC 2998 5.82 µM | SK-MEL-28 3.2 µM | TK-10 4.1 µM | ACHN 3.88 µM | IGROV-1 2.28 µM | OVCAR-3 2.45 µM | SW-620 2.3 µM | KM12 2.36 µM | COLO 205 2.32 µM | T47D 4.23 µM | DU-145 8.05 µM | MDA-N 2.62 µM | NCI/ADR-RES 2.86 µM | EKVX 24.8 µM | 786-0 1.59 µM | UO-31 1.62 µM | A498 8.63 µM | OVCAR-4 2.25 µM

Cc1cc2[nH]c3c(C#N)c4c(c(=O)n3c2cc1C)CCCC4
inactive: SF-295 16 µM | HCC 2998 > 100 µM | SK-MEL-28 > 100 µM | TK-10 > 100 µM | ACHN 72.1 µM | IGROV-1 > 100 µM | OVCAR-3 > 100 µM | SW-620 > 100 µM | KM12 > 100 µM | COLO 205 > 100 µM | T47D > 100 µM | DU-145 > 100 µM | MDA-N 87.9 µM | NCI/ADR-RES > 100 µM | EKVX > 100 µM | 786-0 > 100 µM | UO-31 > 100 µM | A498 > 100 µM | OVCAR-4 > 100 µM

COC(=O)C1=C(O)C(C(=O)OC)[C@]2(O)[C@H](C(=O)OC)[C@H]1C[C@@H](c1ccc(OC)c(OC)c1)[C@H]2C(=O)OC (stereo partly drawn)
inactive: SF-295 17.9 µM | HCC 2998 11.7 µM | SK-MEL-28 19.2 µM | TK-10 24.9 µM | ACHN 25.8 µM | IGROV-1 26.1 µM | OVCAR-3 16.5 µM | SW-620 15.6 µM | KM12 21.1 µM | COLO 205 17.9 µM | T47D 15.9 µM | DU-145 19.9 µM | MDA-N 7.13 µM | NCI/ADR-RES 15.5 µM | EKVX 32.5 µM | 786-0 39.8 µM | UO-31 24.5 µM | A498 18 µM | OVCAR-4 29.6 µM

O=C(CCCCCCCCC(=O)NN1C(=O)/C(=C\c2ccc(O)c(O)c2)SC1c1ccc(Cl)cc1)NN1C(=O)/C(=C\c2ccc(O)c(O)c2)SC1c1ccc(Cl)cc1 (stereo not drawn)
inactive: SF-295 16.2 µM | HCC 2998 34.2 µM | SK-MEL-28 > 54.7 µM | TK-10 25.8 µM | ACHN 18.3 µM | IGROV-1 2.83 µM | OVCAR-3 5.45 µM | SW-620 56.5 µM | KM12 23.8 µM | COLO 205 24.8 µM | T47D 31.9 µM | DU-145 19.9 µM | MDA-N > 88.1 µM | NCI/ADR-RES 28.8 µM | EKVX 50.8 µM | 786-0 7.55 µM | UO-31 5.35 µM | A498 19.8 µM | OVCAR-4 31.9 µM

CC(C)(C)C(=O)C(Cc1ccccc1)C(=O)C(C)(C)C
inactive: SF-295 > 100 µM | HCC 2998 > 100 µM | SK-MEL-28 > 100 µM | TK-10 > 100 µM | ACHN > 100 µM | IGROV-1 > 100 µM | OVCAR-3 55 µM | SW-620 > 100 µM | KM12 > 100 µM | COLO 205 > 100 µM | T47D 25.5 µM | DU-145 > 100 µM | MDA-N > 100 µM | NCI/ADR-RES 51.6 µM | EKVX > 100 µM | 786-0 > 100 µM | UO-31 81.7 µM | A498 > 100 µM | OVCAR-4 66.1 µM
